Reference: PubChem BioAssay (NCI)
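Test compounds were applied to cells in 96-well plates for 48 hours at 5 doses. The concentration for 50% growth inhibition is given as GI50. At the TGI there is no net growth.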

What was measured:
Experiment in all cases: NCI anticancer screen, dose series, 48 h
ACHN renal = tested on: ACHN renal
CCRF-CEM leukemia = tested on: CCRF-CEM leukemia
COLO 205 colon = tested on: COLO 205 colon
HOP-62 NSCLC = tested on: HOP-62 NSCLC
HT29 colon = tested on: HT29 colon
NCI-H226 lung = tested on: NCI-H226 lung
SK-MEL-5 melanoma = tested on: SK-MEL-5 melanoma
SR leukemia = tested on: SR leukemia
U251 CNS = tested on: U251 CNS
UACC-257 melanoma = tested on: UACC-257 melanoma

## COC(=O)CCC1=C(C)c2cc3[n-]c(cc4nc(cc5[n-]c(cc1n2)c(CCC(=O)OC)c5C)C=C4C)cc3C.[Cd+2]
ACHN renal
  GI50: 16.2 µM
  TGI: 38.8 µM
CCRF-CEM leukemia
  GI50: 3.34 µM
  TGI: > 56.4 µM
COLO 205 colon
  GI50: 2.64 µM
  TGI: 6.9 µM
HOP-62 NSCLC
  GI50: 25.4 µM
  TGI: 76.2 µM
HT29 colon
  GI50: 6.74 µM
  TGI: 26.3 µM
NCI-H226 lung
  GI50: 1.52 µM
  TGI: 4.73 µM
SK-MEL-5 melanoma
  GI50: 1.14 µM
  TGI: 2.83 µM
SR leukemia
  GI50: 3.16 µM
  TGI: 8.91 µM
U251 CNS
  GI50: 2.82 µM
  TGI: 9.98 µM
UACC-257 melanoma
  GI50: 4.06 µM
  TGI: 18.3 µM

## CCN(CC)CCCNC(=O)Cc1ccccc1Nc1c(Cl)cccc1Cl
ACHN renal
  TGI: 20.8 µM
CCRF-CEM leukemia
  TGI: 28.2 µM
COLO 205 colon
  TGI: 28.3 µM
HOP-62 NSCLC
  TGI: 29.9 µM
HT29 colon
  TGI: 17.6 µM
NCI-H226 lung
  TGI: 38.5 µM
SK-MEL-5 melanoma
  TGI: 14.1 µM
SR leukemia
  TGI: 26 µM
U251 CNS
  TGI: 25.7 µM
UACC-257 melanoma
  TGI: 13.2 µM

## C/C(=N\Nc1ccc([N+](=O)[O-])cc1)C(=O)N(C)Nc1ccccc1
ACHN renal
  TGI: > 100 µM
CCRF-CEM leukemia
  TGI: > 100 µM
COLO 205 colon
  TGI: > 100 µM
HOP-62 NSCLC
  TGI: > 100 µM
HT29 colon
  TGI: > 100 µM
NCI-H226 lung
  TGI: > 100 µM
SR leukemia
  TGI: > 100 µM
U251 CNS
  TGI: > 100 µM
UACC-257 melanoma
  TGI: > 100 µM

## CN(O)C(=O)Cc1ccccc1
ACHN renal
  TGI: > 100 µM
CCRF-CEM leukemia
  TGI: > 100 µM
COLO 205 colon
  TGI: > 100 µM
HOP-62 NSCLC
  TGI: > 100 µM
HT29 colon
  TGI: > 100 µM
NCI-H226 lung
  TGI: > 100 µM
SK-MEL-5 melanoma
  TGI: > 100 µM
SR leukemia
  TGI: > 100 µM
U251 CNS
  TGI: > 100 µM
UACC-257 melanoma
  TGI: > 100 µM

## COC1=C(OC)CCC(/C(C#N)=C/c2ccc(OC)c(OC)c2)=C1
ACHN renal
  TGI: > 100 µM
CCRF-CEM leukemia
  TGI: > 100 µM
COLO 205 colon
  TGI: > 100 µM
HOP-62 NSCLC
  TGI: 86.9 µM
HT29 colon
  TGI: > 100 µM
NCI-H226 lung
  TGI: > 100 µM
SK-MEL-5 melanoma
  TGI: > 100 µM
SR leukemia
  TGI: > 100 µM
U251 CNS
  TGI: > 100 µM
UACC-257 melanoma
  TGI: > 100 µM

## Oc1ccc2ccccc2c1N=Nc1ccccc1
ACHN renal
  TGI: > 100 µM
CCRF-CEM leukemia
  TGI: > 100 µM
COLO 205 colon
  TGI: > 100 µM
HOP-62 NSCLC
  TGI: > 100 µM
HT29 colon
  TGI: > 100 µM
NCI-H226 lung
  TGI: > 100 µM
SK-MEL-5 melanoma
  TGI: > 100 µM
SR leukemia
  TGI: > 100 µM
U251 CNS
  TGI: > 100 µM
UACC-257 melanoma
  TGI: > 100 µM

## COc1cc2c(cc1C)n(O)c(C)c(C(=O)C/C(=N/NC(=O)C[N+](C)(C)C)C(=O)Nc1cccc(Cl)c1C)[n+]2=O
ACHN renal
  TGI: > 100 µM
CCRF-CEM leukemia
  TGI: > 100 µM
COLO 205 colon
  TGI: > 100 µM
HOP-62 NSCLC
  TGI: > 100 µM
HT29 colon
  TGI: > 100 µM
NCI-H226 lung
  TGI: > 100 µM
SK-MEL-5 melanoma
  TGI: > 100 µM
SR leukemia
  TGI: > 100 µM
U251 CNS
  TGI: > 100 µM
UACC-257 melanoma
  TGI: > 100 µM

## COc1ccc([C@H]2O[C@@H](CO)C[C@]2(O)c2ccc(OC)cc2)cc1
ACHN renal
  GI50: > 100 µM
  TGI: > 100 µM
CCRF-CEM leukemia
  GI50: > 100 µM
  TGI: > 100 µM
COLO 205 colon
  GI50: > 100 µM
  TGI: > 100 µM
HOP-62 NSCLC
  GI50: > 100 µM
  TGI: > 100 µM
HT29 colon
  GI50: > 100 µM
  TGI: > 100 µM
NCI-H226 lung
  GI50: > 100 µM
  TGI: > 100 µM
SK-MEL-5 melanoma
  GI50: > 100 µM
  TGI: > 100 µM
SR leukemia
  GI50: 49.8 µM
  TGI: > 100 µM
U251 CNS
  GI50: > 100 µM
  TGI: > 100 µM
UACC-257 melanoma
  GI50: > 100 µM
  TGI: > 100 µM

## Oc1ccccc1-n1c(-c2ccccc2)ccc1-c1ccccc1
ACHN renal
  GI50: 9.13 µM
  TGI: 21.2 µM
CCRF-CEM leukemia
  GI50: 4.77 µM
  TGI: 71.1 µM
COLO 205 colon
  GI50: 15.3 µM
  TGI: 56.6 µM
HOP-62 NSCLC
  GI50: 11.3 µM
  TGI: 24.2 µM
HT29 colon
  GI50: 2.22 µM
  TGI: 11 µM
NCI-H226 lung
  GI50: 8.69 µM
  TGI: 21.9 µM
SK-MEL-5 melanoma
  GI50: 3.05 µM
  TGI: > 100 µM
SR leukemia
  GI50: 4.2 µM
  TGI: 18 µM
U251 CNS
  GI50: 7.66 µM
  TGI: 20.6 µM
UACC-257 melanoma
  GI50: 4.2 µM
  TGI: 27.3 µM

## O=C(/C=C/c1ccco1)Nc1ncc(Cc2ccc(F)cc2)s1
ACHN renal
  GI50: 0.0749 µM
  TGI: > 100 µM
CCRF-CEM leukemia
  GI50: 0.0614 µM
  TGI: > 100 µM
COLO 205 colon
  GI50: 0.0352 µM
  TGI: 0.137 µM
HOP-62 NSCLC
  GI50: 0.145 µM
  TGI: > 100 µM
HT29 colon
  GI50: 0.0366 µM
  TGI: > 100 µM
NCI-H226 lung
  TGI: > 100 µM
SK-MEL-5 melanoma
  GI50: 0.0476 µM
SR leukemia
  GI50: 0.0356 µM
  TGI: > 68 µM
U251 CNS
  GI50: 0.0615 µM
  TGI: > 100 µM
UACC-257 melanoma
  TGI: > 100 µM

## O=[N+]([O-])c1ccc(Cl)c(C2SCc3nc4ccccc4n32)c1 (centres undefined)
ACHN renal
  TGI: > 100 µM
CCRF-CEM leukemia
  TGI: > 100 µM
COLO 205 colon
  TGI: > 100 µM
HT29 colon
  TGI: > 100 µM
NCI-H226 lung
  TGI: 69.1 µM
SK-MEL-5 melanoma
  TGI: 30.4 µM
SR leukemia
  TGI: > 100 µM
U251 CNS
  TGI: > 100 µM
UACC-257 melanoma
  TGI: 93 µM

## CCOC(=O)C(C)(C)Oc1ccc2c(-c3ccc(Cl)cc3)cc(=O)oc2c1
ACHN renal
  TGI: > 100 µM
CCRF-CEM leukemia
  TGI: > 100 µM
COLO 205 colon
  TGI: > 100 µM
HOP-62 NSCLC
  TGI: > 100 µM
HT29 colon
  TGI: > 100 µM
NCI-H226 lung
  TGI: > 100 µM
SK-MEL-5 melanoma
  TGI: > 100 µM
SR leukemia
  TGI: > 100 µM
U251 CNS
  TGI: > 100 µM
UACC-257 melanoma
  TGI: > 100 µM

## CCOC(=O)C(C[Si](C)(C)C)P(=O)(OCC)OCC (centres undefined)
ACHN renal
  TGI: > 100 µM
CCRF-CEM leukemia
  TGI: > 100 µM
COLO 205 colon
  TGI: > 100 µM
HOP-62 NSCLC
  TGI: > 100 µM
HT29 colon
  TGI: > 100 µM
NCI-H226 lung
  TGI: > 100 µM
SK-MEL-5 melanoma
  TGI: > 100 µM
SR leukemia
  TGI: > 100 µM
U251 CNS
  TGI: > 100 µM
UACC-257 melanoma
  TGI: > 100 µM

## CC(=O)Oc1cccc2c1C(=O)c1c(OC(C)=O)cc(C)cc1C2=O
ACHN renal
  TGI: > 100 µM
CCRF-CEM leukemia
  TGI: > 100 µM
COLO 205 colon
  TGI: > 100 µM
HOP-62 NSCLC
  TGI: > 100 µM
HT29 colon
  TGI: > 100 µM
NCI-H226 lung
  TGI: > 100 µM
SK-MEL-5 melanoma
  TGI: > 100 µM
SR leukemia
  TGI: > 100 µM
U251 CNS
  TGI: > 100 µM
UACC-257 melanoma
  TGI: > 100 µM

## O=C1c2cc(CCl)sc2C(=O)c2ccsc21
ACHN renal
  TGI: 1.25 µM
CCRF-CEM leukemia
  TGI: 1.22 µM
COLO 205 colon
  TGI: 2.68 µM
HT29 colon
  TGI: 2.56 µM
NCI-H226 lung
  TGI: 3.1 µM
SK-MEL-5 melanoma
  TGI: 0.0821 µM
SR leukemia
  TGI: 0.571 µM
U251 CNS
  TGI: 1.14 µM
UACC-257 melanoma
  TGI: 0.327 µM

## C[Si](C)(C)/C=C/CN1C(=O)CCC1O (centres undefined)
ACHN renal
  TGI: > 100 µM
CCRF-CEM leukemia
  TGI: > 100 µM
COLO 205 colon
  TGI: > 100 µM
HOP-62 NSCLC
  TGI: > 100 µM
HT29 colon
  TGI: > 100 µM
NCI-H226 lung
  TGI: > 100 µM
SK-MEL-5 melanoma
  TGI: > 100 µM
SR leukemia
  TGI: > 100 µM
U251 CNS
  TGI: > 100 µM
UACC-257 melanoma
  TGI: > 100 µM

## CC1(C)OCN(c2ccc(Cl)cc2)Cn2c1nc1ccccc12
ACHN renal
  TGI: > 100 µM
CCRF-CEM leukemia
  TGI: > 100 µM
COLO 205 colon
  TGI: 12 µM
HOP-62 NSCLC
  TGI: > 100 µM
HT29 colon
  TGI: > 100 µM
NCI-H226 lung
  TGI: > 100 µM
SK-MEL-5 melanoma
  TGI: 5.39 µM
SR leukemia
  TGI: 98.6 µM
U251 CNS
  TGI: > 100 µM
UACC-257 melanoma
  TGI: > 100 µM

## O=Nc1c(O)ccc2ccccc12
ACHN renal
  GI50: 2.16 µM
  TGI: 7.52 µM
CCRF-CEM leukemia
  GI50: 3.16 µM
  TGI: 11.4 µM
COLO 205 colon
  GI50: 7.81 µM
  TGI: 21.8 µM
HOP-62 NSCLC
  GI50: 12.9 µM
  TGI: 26.1 µM
HT29 colon
  GI50: 3.41 µM
  TGI: 10.7 µM
NCI-H226 lung
  GI50: 15.6 µM
  TGI: 33.4 µM
SK-MEL-5 melanoma
  GI50: 1.46 µM
  TGI: 2.85 µM
SR leukemia
  GI50: 2.16 µM
  TGI: 5.86 µM
U251 CNS
  GI50: 2.17 µM
  TGI: 5.52 µM
UACC-257 melanoma
  GI50: 1.64 µM
  TGI: 3.2 µM
